Data on 19 compounds can be found in patent US12692262B2, “Substituted ureas as orexin receptor agonists” (Merck Sharp & Dohme LLC, priority 2020, dated 2026).

The target of this assay is T1, human OX2R (Homo sapiens, UniProt O43614).
T1 construct: expressed in transfected cells; host or cells: CHO (Chinese hamster ovary) cells grown under G418 selection
T1 sequence (O43614 1-444): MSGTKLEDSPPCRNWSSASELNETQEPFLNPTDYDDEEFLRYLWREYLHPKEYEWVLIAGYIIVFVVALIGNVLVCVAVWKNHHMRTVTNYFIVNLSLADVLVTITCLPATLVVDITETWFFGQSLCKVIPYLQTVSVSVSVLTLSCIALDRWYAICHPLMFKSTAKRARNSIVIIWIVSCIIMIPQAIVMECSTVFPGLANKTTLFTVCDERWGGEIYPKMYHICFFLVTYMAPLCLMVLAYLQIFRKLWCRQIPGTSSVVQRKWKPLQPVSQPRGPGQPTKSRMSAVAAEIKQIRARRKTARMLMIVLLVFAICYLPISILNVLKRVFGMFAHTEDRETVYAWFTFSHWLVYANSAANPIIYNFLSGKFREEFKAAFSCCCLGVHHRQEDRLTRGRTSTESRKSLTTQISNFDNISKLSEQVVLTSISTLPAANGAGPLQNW
As to the kind of experiment: IPOne (IP-1 accumulation) assay in CHO cells expressing human OX2R. Format: cell-based. The settings on record: for EC50: CHO cells expressing human OX2R, IP-One assay, 2 h incubation, four parameter logistic fit, read-out: OX2R Potency, EC50; for % of maximum agonist effect (relative to Orexin A): percent effect vs mean max effect of a reference compound at 1 uM (100% activity vs Orexin A), human OX2R. In short, it runs like this:
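CHO cells stably expressing human OX2R, grown in Iscove's modified DMEM with 10% FBS; agonist-driven IP-1 accumulation via the Gαq pathway measured by HTRF (D2/AB-cryptate detection after lysis). EC50 taken as the inflection point of a four-parameter logistic fit.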

For the compound `CCN(C(=O)N[C@@H](CCC(F)(F)F)C(F)(F)F)[C@@H](c1cc(-c2nc(OC)c3nccn3c2C)c(OC)cn1)C(F)(F)F` [Example 9-3, 1-ethyl-3-((S)-1,1,1,5,5,5-hexafluoropentan-2-yl)-1-((S)-2,2,2-trifluoro-1-(5-methoxy-4-(8-methoxy-5-methylimidazo[1,2-a]pyrazin-6-yl)pyridin-2-yl)ethyl)urea], the EC50 (as a rule, the midpoint of the concentration-response curve) came to 6.2 nM and the “% of maximum agonist effect (relative to Orexin A)” value is on record as 100.7%.

With `CCN(C(=O)N[C@@H](CCC(F)(F)F)C(F)(F)F)[C@H](C)c1cc(-c2cc(OC)c3ncoc3c2)c(OC)cn1` [Example 9-4, 1-ethyl-3-((S)-1,1,1,5,5,5-hexafluoropentan-2-yl)-1-((R)-1-(5-methoxy-4-(4-methoxybenzo[d]oxazol-6-yl)pyridin-2-yl)ethyl)urea], the EC50 turned out to be 7.5 nM and the “% of maximum agonist effect (relative to Orexin A)” value came out at 99.6%.

Take `CCc1cc(-c2cc([C@@H](C)N(CC)C(=O)N[C@@H](CCC(F)(F)F)C(F)(F)F)ncc2OC)cc2ccnn12` [Example 9-5, 1-ethyl-1-((R)-1-(4-(7-ethylpyrazolo[1,5-a]pyridin-5-yl)-5-methoxypyridin-2-yl)ethyl)-3-((S)-1,1,1,5,5,5-hexafluoropentan-2-yl)urea]: the EC50 worked out at 16.3 nM and the “% of maximum agonist effect (relative to Orexin A)” value is recorded as 99.6%.

With `CCN(C(=O)N[C@@H](CCC(F)(F)F)C(F)(F)F)[C@@H](c1cc(-c2cc(OC)c3ncn(C)c3c2)c(OC)cn1)C(F)(F)F` [Example 9-7, 1-ethyl-3-((S)-1,1,1,5,5,5-hexafluoropentan-2-yl)-1-((S)-2,2,2-trifluoro-1-(5-methoxy-4-(4-methoxy-1-methyl-1H-benzo[d]imidazol-6-yl)pyridin-2-yl)ethyl)urea], the EC50 worked out at 29.8 nM and the “% of maximum agonist effect (relative to Orexin A)” value was determined as 100.4%.

Consider `CCN(C(=O)N[C@@H](CCC(F)(F)F)C(F)(F)F)[C@@H](c1cc(-c2cc(OC)n3nccc3n2)c(OC)cn1)C(F)(F)F` [Example 9-8, 1-ethyl-3-((S)-1,1,1,5,5,5-hexafluoropentan-2-yl)-1-((S)-2,2,2-trifluoro-1-(5-methoxy-4-(7-methoxypyrazolo[1,5-a]pyrimidin-5-yl)pyridin-2-yl)ethyl)urea], for which the EC50 came out at 44 nM and the “% of maximum agonist effect (relative to Orexin A)” value was 99.5%.

Consider `CCN(C(=O)N[C@@H](CCC(F)(F)F)C(F)(F)F)[C@@H](c1cc(-c2cc(F)c3ncnn3c2)c(OC)cn1)C(F)(F)F` [Example 9-10, 1-ethyl-3-((S)-1,1,1,5,5,5-hexafluoropentan-2-yl)-1-((S)-2,2,2-trifluoro-1-(4-(8-fluoro-[1,2,4]triazolo[1,5-a]pyridin-6-yl)-5-methoxypyridin-2-yl)ethyl)urea], for which the EC50 amounted to 608 nM and the “% of maximum agonist effect (relative to Orexin A)” value was 97.1%.

With `CCN(C(=O)N[C@@H](CCC(F)(F)F)C(F)(F)F)[C@@H](c1cc(-c2nc(OC)c3nccn3n2)c(OC)cn1)C(F)(F)F` [Example 9-11, 1-ethyl-3-((S)-1,1,1,5,5,5-hexafluoropentan-2-yl)-1-((S)-2,2,2-trifluoro-1-(5-methoxy-4-(4-methoxyimidazo[2,1-f][1,2,4]triazin-2-yl)pyridin-2-yl)ethyl)urea], the EC50 was determined as 2.6 nM and the “% of maximum agonist effect (relative to Orexin A)” value was 99.5%.

Regarding `CCN(C(=O)N[C@@H](CCC(F)(F)F)C(F)(F)F)[C@@H](c1cc(-c2cn3ccnc3c(OC)n2)c(OC)cn1)C(F)(F)F` [Example 10-1, 1-ethyl-3-((S)-1,1,1,5,5,5-hexafluoropentan-2-yl)-1-((S)-2,2,2-trifluoro-1-(5-methoxy-4-(8-methoxyimidazo[1,2-a]pyrazin-6-yl)pyridin-2-yl)ethyl)urea], the EC50 was determined as 1.1 nM and the “% of maximum agonist effect (relative to Orexin A)” value turned out to be 100.4%.

As for `CCN(C(=O)N[C@@H](CCC(F)(F)F)C(F)(F)F)[C@H](C)c1cc(-c2cn3ccnc3c(OC)n2)c(OC)nn1` [Example 10-3, 1-ethyl-3-((S)-1,1,1,5,5,5-hexafluoropentan-2-yl)-1-((R)-1-(6-methoxy-5-(8-methoxyimidazo[1,2-a]pyrazin-6-yl)pyridazin-3-yl)ethyl)urea], the EC50 is 0.8 nM and the “% of maximum agonist effect (relative to Orexin A)” value worked out at 101.7%.

Take `CCN(C(=O)N[C@@H](CCC(F)(F)F)C(F)(F)F)C(c1ncc(OC)c(-c2cn3ccnc3c(OC)n2)n1)C(F)(F)F` (stereo partly drawn) [Example 10-4, 1-ethyl-3-((S)-1,1,1,5,5,5-hexafluoropentan-2-yl)-1-(2,2,2-trifluoro-1-(5-methoxy-4-(8-methoxyimidazo[1,2-a]pyrazin-6-yl)pyrimidin-2-yl)ethyl)urea]: the EC50 is 1.3 nM and the “% of maximum agonist effect (relative to Orexin A)” value is 100.7%.

On to `CCN(C(=O)N[C@@H](CCC(F)(F)F)C(F)(F)F)C(c1cnc(OC)c(-c2cn3ccnc3c(OC)n2)n1)C(F)(F)F` (stereo partly drawn) [Example 10-5, 1-ethyl-3-((S)-1,1,1,5,5,5-hexafluoropentan-2-yl)-1-(2,2,2-trifluoro-1-(5-methoxy-6-(8-methoxyimidazo[1,2-a]pyrazin-6-yl)pyrazin-2-yl)ethyl)urea], for which the EC50 was 2.5 nM and the “% of maximum agonist effect (relative to Orexin A)” value is on record as 101.6%.

For `CCN(C(=O)N[C@@H](CCC(F)(F)F)C(F)(F)F)C(c1cc(-c2cn3ccnc3c(OC)n2)c(OC)c(C)n1)C(F)(F)F` (stereo partly drawn) [Example 10-6, 1-ethyl-3-((S)-1,1,1,5,5,5-hexafluoropentan-2-yl)-1-(2,2,2-trifluoro-1-(5-methoxy-4-(8-methoxyimidazo[1,2-a]pyrazin-6-yl)-6-methylpyridin-2-yl)ethyl)urea], the EC50 stood at 9.2 nM and the “% of maximum agonist effect (relative to Orexin A)” value is reported as 98.9%.

Take `CCN(C(=O)N[C@@H](CCC(F)(F)F)C(F)(F)F)C(c1cc(-c2cc(OC)c3nc(C#N)cn3c2)c(OC)cn1)C(F)(F)F` (stereo partly drawn) [Example 10-7, 1-(1-(4-(2-cyano-8-methoxyimidazo[1,2-a]pyridin-6-yl)-5-methoxypyridin-2-yl)-2,2,2-trifluoroethyl)-1-ethyl-3-((S)-1,1,1,5,5,5-hexafluoropentan-2-yl)urea]: the EC50 worked out at 1.5 nM and the “% of maximum agonist effect (relative to Orexin A)” value is given as 102.7%.

In the case of `CCN(C(=O)N[C@@H](CCC(F)(F)F)C(F)(F)F)[C@@H](c1cc(-c2cc3scnc3c(OC)n2)c(OC)cn1)C(F)(F)F` [Example 10-8, 1-ethyl-3-((S)-1,1,1,5,5,5-hexafluoropentan-2-yl)-1-((S)-2,2,2-trifluoro-1-(5-methoxy-4-(4-methoxythiazolo[4,5-c]pyridin-6-yl)pyridin-2-yl)ethyl)urea], the EC50 amounted to 2.3 nM and the “% of maximum agonist effect (relative to Orexin A)” value is listed as 100.7%.

With `CCN(C(=O)N[C@@H](CCC(F)(F)F)C(F)(F)F)[C@@H](c1cc(-c2cn3cc(C)nc3c(OC)n2)c(OC)cn1)C(F)(F)F` [Example 10-9, 1-ethyl-3-((S)-1,1,1,5,5,5-hexafluoropentan-2-yl)-1-((S)-2,2,2-trifluoro-1-(5-methoxy-4-(8-methoxy-2-methylimidazo[1,2-a]pyrazin-6-yl)pyridin-2-yl)ethyl)urea], the half-maximal effective concentration (EC50) worked out at 2.7 nM and the “% of maximum agonist effect (relative to Orexin A)” value came to 102.5%.

For `CCN(C(=O)N[C@@H](CCC(F)(F)F)C(F)(F)F)C(c1cc(-c2cc(OC)c3nccn3n2)c(OC)cn1)C(F)(F)F` (stereo partly drawn) [Example 10-10, 1-ethyl-3-((S)-1,1,1,5,5,5-hexafluoropentan-2-yl)-1-(2,2,2-trifluoro-1-(5-methoxy-4-(8-methoxyimidazo[1,2-b]pyridazin-6-yl)pyridin-2-yl)ethyl)urea], the EC50 came out at 4.7 nM and the “% of maximum agonist effect (relative to Orexin A)” value is 100.8%.

For the compound `CCN(C(=O)N[C@@H](CCC(F)(F)F)C(F)(F)F)C(c1cc(-c2cc(OC)c3ncccc3c2)c(OC)cn1)C(F)(F)F` (stereo partly drawn) [Example 10-11, 1-ethyl-3-((S)-1,1,1,5,5,5-hexafluoropentan-2-yl)-1-(2,2,2-trifluoro-1-(5-methoxy-4-(8-methoxyquinolin-6-yl)pyridin-2-yl)ethyl)urea], the EC50 was found to be 7.3 nM and the “% of maximum agonist effect (relative to Orexin A)” value amounted to 101.3%.

`CCN(C(=O)N[C@@H](CCC(F)(F)F)C(F)(F)F)C(c1cc(-c2cn3c(C#N)cnc3c(OC)n2)c(OC)cn1)C(F)(F)F` (stereo partly drawn) [Example 10-12, 1-(1-(4-(3-cyano-8-methoxyimidazo[1,2-a]pyrazin-6-yl)-5-methoxypyridin-2-yl)-2,2,2-trifluoroethyl)-1-ethyl-3-((S)-1,1,1,5,5,5-hexafluoropentan-2-yl)urea]: the EC50 is 70.1 nM and the “% of maximum agonist effect (relative to Orexin A)” value stood at 100.5%.

Regarding `CCN(C(=O)N[C@@H](CCC(F)(F)F)C(F)(F)F)C(c1cc(-c2cc(OC)c3nccnc3c2)c(OC)cn1)C(F)(F)F` (stereo partly drawn) [Example 10-13, 1-ethyl-3-((S)-1,1,1,5,5,5-hexafluoropentan-2-yl)-1-(2,2,2-trifluoro-1-(5-methoxy-4-(8-methoxyquinoxalin-6-yl)pyridin-2-yl)ethyl)urea], the EC50 worked out at 132 nM and the “% of maximum agonist effect (relative to Orexin A)” value amounted to 101.7%.
